From patent publication US11065319B2, “Methods for diagnosing and reducing incidences of cardiac allograft rejection” (3DT Holdings, LLC, priority 2014, dated 2021)
“And” between values parts separate entries of the source, which are not always exact repeats. Equal entries are not always repeated. “Also recorded” adds a separate entry of the source.

Tests used:
[1] = system: IgM in human heart biopsies; experiment: Displacement (elution) of IgM from human heart transplant biopsies; assay type: binding; conditions: for removal of IgM from heart biopsies by incubation: PC 50 mM, CRP 2.58 mg/ml, albumin 1 mg/ml; for vascular IgM in biopsy after incubation (immunohistochemistry): displacement experiments; for IgM anti-PC in biopsy eluates (ELISA): eluates after incubation of biopsies; for IgM in western blots of biopsy eluates: following incubation of biopsies
Experimental: To verify if the IgM removed from the heart biopsies is PC-specific, ELISA was performed.
One hundred and seventy-two (172) adult heart transplant patients (having a number of serial biopsies per patient in first three months post-transplant) were followed for several years and subsequently analyzed. CAV was diagnosed with serial angiographies for each patient. The percentage of microvascular IgM was quantified with double staining (IgM/CD31 or Ulex europaeus lectin). IgM and IgM anti-phosphorylcholine (PC) from biopsy eluates were determined with immunoblotting and enzyme-linked immunosorbent assays (ELISAs). Statistical analyses used univariate logistic regression, multivariate stepwise models, and Kaplan-Meier curves for different tertile groups.

IgM anti-PC NAbs = experiment: PC-KLH immunization of mice, serum IgM anti-PC by ELISA; assay type: in vivo
Text: In group 1, normal C57BL/6 mice (IgG+IgM producers) were immunized by PC-keyhole limpet hemocyanin (PC-KLH) to induce anti-PC NAb production. In group 2, IgM-deficient mice that have impaired IgM antibody production, but still have an IgG response were immunized.
As controls for PC immunization, mice of the same genotypes were vaccinated with KLH. These procedures define the conditions of a 2×2 factorial design, as depicted in Table 1, with 2 immunization conditions (PC or KLH), and 2 mouse genotypes (normal C57BL/6 and IgM-deficient). Eight weeks after immunization, all mice were euthanized by CO2 inhalation. Mouse sera from these animals was subsequently used to conduct the two in vitro studies. Additionally, the mouse serum IgM-anti-PC was analyzed using custom ELISA. Specifically, to establish the inflammatory milieu in the mouse sera used for the in vitro experiments, the sera was analyzed for pro-inflammatory TNF-α, IFN-γ, IL-1β, IL-6, IL-12 and anti-inflammatory IL-10 IL-4, IL-13, and TGF-β cytokines (SearchLight Multiplex Assay System, Aushom Biosystems).

cardiac allograft = experiment: Heterotopic heart transplant model of CAV with PC vaccination; assay type: in vivo, mice; conditions: mouse model of heart transplantation
Experimental: In addition to the mechanisms underlying MΦ differentiation and the effect of NAbs thereon, it is also important to identify what artheroprotective effect (if any) a PC vaccination may have in vivo. In an attempt to determine if experimental induction of IgM anti-PC NAbs have a beneficial effect on graft rejection and survival, experiments were conducted in an in vivo heart transplant model to measure such antibodies' affect on CAV and graft survival. Specifically, heart transplants and experimental vaccination were performed in normal mice (C57BL/6) and in IgM-deficient mice. Thereafter, IgM antibody response was measured, and a determination made as to what (if any) effect the vaccination had on graft survival.
The study used a 2×3 factorial design to test the (a) main effect of immunization defined by 3 conditions: experimental vaccination vs. negative control (vaccination with KLH vehicle) vs. positive control (intra-peritoneal mouse polyclonal IgM); and (b) main effect of mouse genotype—normal C57BL/6 vs. IgM-deficient mice—on cardiac graft rejection (see Table 2). […]
All mice underwent heart transplantation at 16 weeks of age, 8 weeks after initial vaccination. […] Cardiac allograft viability was thereafter assessed by daily abdominal palpation. […]
Graft survival curves were calculated in accordance with the Kaplan-Meier method. […]

[2] = system: human aortic and microvascular endothelial cells; experiment: Incubation of cultured endothelial cells with CRP (cell activation); assay type: cell-based; conditions: incubation with CRP vs controls without CRP
Text: Additionally, note the absence of ICAM-1 (subpart A of FIG. 7) and NF-κB nuclear expression (subpart C of FIG. 7) in the controls that lacked CRP exposure.

| Molecule | removal of IgM from heart biopsies by incubation [1] | vascular IgM in biopsy after incubation (immunohistochemistry) [1] | IgM anti-PC in biopsy eluates (ELISA) [1] | IgM in western blots of biopsy eluates [1] | production of specific IgM anti-PC NAbs (IgM anti-PC NAbs) | graft survival (cardiac allograft) | ICAM-1 expression [2] | NF-κB nuclear localization [2] |
| --- | --- | --- | --- | --- | --- | --- | --- | --- |
| C[N+](C)(C)CCOP(=O)(O)O [PC, phosphorylcholine] | removed IgM from the biopsies; also recorded: can be removed | removal of IgM; also recorded: showed biopsy removal | 56.67±19.96 U/ml and 56.7±20.0 U/ml | showed IgM | induced the production of specific IgM anti-PC NAbs | positive effect on graft survival | – | – |
| CRP: C-reactive protein, pro-inflammatory molecule | removed IgM from the biopsies; also recorded: can be removed | removal of IgM; also recorded: showed biopsy removal | 60.49±18.26 U/ml and 60.5±18.3 U/ml | showed IgM | – | – | increased ICAM-1 expression | nuclear factor-kappa B (NF-κB) nuclear localization |
